In brackets after ≈: the same amount, converted by molar mass.
Legend:
[1] = Solubility test in buffer, LC-MS; format: physicochemical; details: aqueous buffer, thermodynamic from solid, room temperature, shaking 8 h, pH not given (method: pH 2.0, 6.5, 7.4)
Method: Accurately weigh 3 portions of about 2 mg of the compound, and add appropriate volumes of buffers with the pHs of 2.0, 6.5, and 7.4 respectively to obtain a solution with a concentration of 2 mg/mL. After sonication for 10 min, fix them on a shaker and shaking for 8 h at room temperature. After shaking, sonicate for 10 min and centrifuge for 15 min at 13,000 rpm. Pipette 0.1 mL of supernatant into a new tube, shake and rinse it with 5 mL, and discard the liquid. Transfer 0.5 mL of the supernatant again to a new tube, centrifuge it for 15 min at 13,000 rpm, then collect the supernatant (if necessary, dilute with water) and analyze it by LC-MS. The sample concentrations at 3~5 points are subjected to fitting and reticle for quantification.

EGFR = biological target: T1, EGFR (Homo sapiens, UniProt P00533); assay: Kinase inhibition, Mobility Shift Assay/IMAP, EGFR; format: biochemical
T1 construct: purchased Carna 08-115
Summary of the method: (§1)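 Substrate conversion (phosphorylated vs non-phosphorylated) read by mobility shift on Caliper EZ Reader II and converted to % inhibition relative to no-enzyme and DMSO controls. IC50 fitted from % inhibition versus log compound concentration.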

VEGFR2 = VEGFR2 (Homo sapiens, UniProt P35968); assay: Kinase inhibition, Mobility Shift Assay/IMAP, VEGFR2; format: biochemical; design: purchased Carna 08-191
Summary of the method: as §1

TIE2 = biological target: T2, TIE2 (Homo sapiens, UniProt Q02763); assay: Kinase inhibition, Mobility Shift Assay/IMAP, TIE2; format: biochemical
T2 construct: purchased BPS 40270
Summary of the method: as §1

melanin = assay: Binding capacity of compounds to melanin; format: in vitro ADME, cuttlefish (Sepia officinalis); details: cuttlefish (Sepia officinalis), melanin suspension (1 mg/mL); 1 mg/mL melanin in PBS pH 7.4, 2 μM compound, 2 h at 37° C.; read-out: Fu % (percentage of free drug)
Summary of the method: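 Compound (2 μM final) incubated with washed Sepia melanin (1 mg/mL, PBS pH 7.4) 2 h at 37° C with shaking; PBS with 0.1% BSA served as blank. Supernatants quantified by LC-MS/MS; bound fraction Fb derived from melanin versus blank concentration.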

VEGFR1 = biological target: T3, VEGFR1 (Homo sapiens, UniProt P17948); assay: Kinase inhibition, Mobility Shift Assay/IMAP, VEGFR1; format: biochemical
T3 construct: purchased Invitrogen PR6731B
Excerpt: (§2) This assay directly monitored the ability of compounds to inhibit kinase phosphorylation by measuring non-phosphorylated and phosphorylated substrates in kinase reactions by using Mobility Shift Assays/IMAP™ analysis.
(§3) Read the conversion ratio data on CaliperEZ Reader II. Convert conversion rates into inhibition ratio data.
(§4) “Min” indicates the readout of the control well without the addition of enzymes; and “Max” indicates the readout of the control well with the addition of DMSO Fit IC50 values with XL Fit excel add-in version […].
(§5) X indicates the log value of compound concentration, and Y indicates the inhibition ratio (% inhibition).

VEGFR3 = biological target: T4, VEGFR3 (Homo sapiens, UniProt P35916); assay: Kinase inhibition, Mobility Shift Assay/IMAP, VEGFR3; format: biochemical
T4 construct: purchased Invitrogen PV4129
Excerpt: as §2, §3, §4, §5

T1 sequence (P00533 669-1210 limits assumed): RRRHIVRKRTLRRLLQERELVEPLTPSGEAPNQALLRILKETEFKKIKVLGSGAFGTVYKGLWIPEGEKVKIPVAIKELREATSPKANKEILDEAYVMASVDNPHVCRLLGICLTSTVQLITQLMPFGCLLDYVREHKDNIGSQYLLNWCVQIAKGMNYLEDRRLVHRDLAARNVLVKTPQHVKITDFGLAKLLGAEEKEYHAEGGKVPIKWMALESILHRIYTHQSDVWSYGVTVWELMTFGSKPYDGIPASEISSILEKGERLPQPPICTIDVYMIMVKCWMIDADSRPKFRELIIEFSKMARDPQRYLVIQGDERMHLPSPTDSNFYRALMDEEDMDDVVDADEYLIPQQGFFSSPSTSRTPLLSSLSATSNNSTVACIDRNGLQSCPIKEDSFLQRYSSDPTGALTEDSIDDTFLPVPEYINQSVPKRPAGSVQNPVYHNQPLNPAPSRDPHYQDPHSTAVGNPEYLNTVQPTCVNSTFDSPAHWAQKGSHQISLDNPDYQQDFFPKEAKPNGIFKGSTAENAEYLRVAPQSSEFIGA
T2 sequence (Q02763 23-1124): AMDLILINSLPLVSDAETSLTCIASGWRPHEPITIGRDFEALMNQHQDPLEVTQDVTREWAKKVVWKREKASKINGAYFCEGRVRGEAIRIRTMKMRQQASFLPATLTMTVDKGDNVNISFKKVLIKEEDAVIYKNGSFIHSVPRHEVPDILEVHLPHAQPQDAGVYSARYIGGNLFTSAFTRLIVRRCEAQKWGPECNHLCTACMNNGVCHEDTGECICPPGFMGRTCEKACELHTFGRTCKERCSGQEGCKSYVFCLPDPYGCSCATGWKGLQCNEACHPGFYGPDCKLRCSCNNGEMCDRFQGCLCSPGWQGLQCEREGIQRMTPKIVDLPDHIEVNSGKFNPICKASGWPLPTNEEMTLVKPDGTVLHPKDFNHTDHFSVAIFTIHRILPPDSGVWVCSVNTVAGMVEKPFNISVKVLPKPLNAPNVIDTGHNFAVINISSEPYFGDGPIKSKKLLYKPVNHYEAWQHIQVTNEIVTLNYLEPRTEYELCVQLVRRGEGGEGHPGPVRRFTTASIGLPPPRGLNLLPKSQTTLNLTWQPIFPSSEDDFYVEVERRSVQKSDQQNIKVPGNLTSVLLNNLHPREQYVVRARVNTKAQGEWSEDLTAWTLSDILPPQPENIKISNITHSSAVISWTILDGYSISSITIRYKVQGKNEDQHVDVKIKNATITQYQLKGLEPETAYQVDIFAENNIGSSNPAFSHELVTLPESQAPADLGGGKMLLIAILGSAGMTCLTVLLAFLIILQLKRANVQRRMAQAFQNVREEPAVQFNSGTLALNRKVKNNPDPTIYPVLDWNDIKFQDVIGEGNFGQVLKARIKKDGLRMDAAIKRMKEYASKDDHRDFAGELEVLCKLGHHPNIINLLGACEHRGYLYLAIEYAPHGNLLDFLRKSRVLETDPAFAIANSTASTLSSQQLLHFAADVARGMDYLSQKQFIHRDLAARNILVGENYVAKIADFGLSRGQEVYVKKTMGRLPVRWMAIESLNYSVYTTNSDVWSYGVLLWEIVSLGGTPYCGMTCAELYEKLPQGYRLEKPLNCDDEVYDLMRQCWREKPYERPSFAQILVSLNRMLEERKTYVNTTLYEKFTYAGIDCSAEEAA
T4 sequence (P35916 25-1363): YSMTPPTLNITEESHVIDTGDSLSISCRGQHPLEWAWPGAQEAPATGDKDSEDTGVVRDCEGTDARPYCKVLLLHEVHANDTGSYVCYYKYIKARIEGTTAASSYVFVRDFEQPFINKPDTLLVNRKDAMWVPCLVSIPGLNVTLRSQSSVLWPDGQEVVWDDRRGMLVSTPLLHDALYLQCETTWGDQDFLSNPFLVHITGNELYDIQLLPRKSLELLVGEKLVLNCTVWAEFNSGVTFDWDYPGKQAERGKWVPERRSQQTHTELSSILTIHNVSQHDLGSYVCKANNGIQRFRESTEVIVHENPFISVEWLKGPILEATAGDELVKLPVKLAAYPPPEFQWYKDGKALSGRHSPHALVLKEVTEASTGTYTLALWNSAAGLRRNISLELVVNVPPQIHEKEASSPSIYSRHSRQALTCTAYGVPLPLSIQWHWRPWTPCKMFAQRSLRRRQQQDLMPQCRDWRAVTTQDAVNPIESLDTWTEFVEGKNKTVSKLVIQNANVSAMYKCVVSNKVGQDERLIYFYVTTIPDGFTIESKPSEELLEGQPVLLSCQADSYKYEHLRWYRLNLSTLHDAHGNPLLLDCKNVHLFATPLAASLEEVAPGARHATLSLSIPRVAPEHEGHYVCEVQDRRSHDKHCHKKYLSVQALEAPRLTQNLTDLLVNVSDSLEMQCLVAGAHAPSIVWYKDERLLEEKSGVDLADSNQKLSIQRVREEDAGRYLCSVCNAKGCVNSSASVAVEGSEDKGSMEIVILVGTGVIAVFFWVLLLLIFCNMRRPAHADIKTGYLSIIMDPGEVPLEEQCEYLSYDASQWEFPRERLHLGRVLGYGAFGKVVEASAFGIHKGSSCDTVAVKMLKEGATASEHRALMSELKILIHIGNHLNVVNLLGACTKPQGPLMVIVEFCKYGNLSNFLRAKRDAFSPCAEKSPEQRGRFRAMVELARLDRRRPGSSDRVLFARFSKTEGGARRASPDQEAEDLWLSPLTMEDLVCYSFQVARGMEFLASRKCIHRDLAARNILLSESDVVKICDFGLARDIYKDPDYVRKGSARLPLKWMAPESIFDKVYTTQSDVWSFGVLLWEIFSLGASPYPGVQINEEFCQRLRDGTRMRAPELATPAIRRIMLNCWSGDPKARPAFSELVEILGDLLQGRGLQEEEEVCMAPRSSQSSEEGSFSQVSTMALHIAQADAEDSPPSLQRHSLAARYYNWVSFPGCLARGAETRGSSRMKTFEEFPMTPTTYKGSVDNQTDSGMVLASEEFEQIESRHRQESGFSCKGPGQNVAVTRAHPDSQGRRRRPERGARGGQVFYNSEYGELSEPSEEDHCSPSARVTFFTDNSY
Sequence of VEGFR2 (P35968 790-1356 limits assumed): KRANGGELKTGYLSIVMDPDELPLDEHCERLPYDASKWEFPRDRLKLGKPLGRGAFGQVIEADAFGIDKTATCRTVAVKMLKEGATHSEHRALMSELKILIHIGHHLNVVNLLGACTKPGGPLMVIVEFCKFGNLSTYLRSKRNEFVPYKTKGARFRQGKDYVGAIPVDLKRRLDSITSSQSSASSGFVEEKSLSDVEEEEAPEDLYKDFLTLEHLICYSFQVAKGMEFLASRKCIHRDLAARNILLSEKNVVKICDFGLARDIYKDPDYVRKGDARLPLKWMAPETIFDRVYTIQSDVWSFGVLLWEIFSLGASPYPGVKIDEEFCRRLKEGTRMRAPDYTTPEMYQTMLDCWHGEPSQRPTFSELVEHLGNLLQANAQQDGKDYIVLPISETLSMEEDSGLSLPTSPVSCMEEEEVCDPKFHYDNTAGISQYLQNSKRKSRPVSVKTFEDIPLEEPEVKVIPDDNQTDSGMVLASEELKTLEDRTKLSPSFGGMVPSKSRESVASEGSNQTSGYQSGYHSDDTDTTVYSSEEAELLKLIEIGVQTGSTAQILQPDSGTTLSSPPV
T3 sequence (P17948 27-1338): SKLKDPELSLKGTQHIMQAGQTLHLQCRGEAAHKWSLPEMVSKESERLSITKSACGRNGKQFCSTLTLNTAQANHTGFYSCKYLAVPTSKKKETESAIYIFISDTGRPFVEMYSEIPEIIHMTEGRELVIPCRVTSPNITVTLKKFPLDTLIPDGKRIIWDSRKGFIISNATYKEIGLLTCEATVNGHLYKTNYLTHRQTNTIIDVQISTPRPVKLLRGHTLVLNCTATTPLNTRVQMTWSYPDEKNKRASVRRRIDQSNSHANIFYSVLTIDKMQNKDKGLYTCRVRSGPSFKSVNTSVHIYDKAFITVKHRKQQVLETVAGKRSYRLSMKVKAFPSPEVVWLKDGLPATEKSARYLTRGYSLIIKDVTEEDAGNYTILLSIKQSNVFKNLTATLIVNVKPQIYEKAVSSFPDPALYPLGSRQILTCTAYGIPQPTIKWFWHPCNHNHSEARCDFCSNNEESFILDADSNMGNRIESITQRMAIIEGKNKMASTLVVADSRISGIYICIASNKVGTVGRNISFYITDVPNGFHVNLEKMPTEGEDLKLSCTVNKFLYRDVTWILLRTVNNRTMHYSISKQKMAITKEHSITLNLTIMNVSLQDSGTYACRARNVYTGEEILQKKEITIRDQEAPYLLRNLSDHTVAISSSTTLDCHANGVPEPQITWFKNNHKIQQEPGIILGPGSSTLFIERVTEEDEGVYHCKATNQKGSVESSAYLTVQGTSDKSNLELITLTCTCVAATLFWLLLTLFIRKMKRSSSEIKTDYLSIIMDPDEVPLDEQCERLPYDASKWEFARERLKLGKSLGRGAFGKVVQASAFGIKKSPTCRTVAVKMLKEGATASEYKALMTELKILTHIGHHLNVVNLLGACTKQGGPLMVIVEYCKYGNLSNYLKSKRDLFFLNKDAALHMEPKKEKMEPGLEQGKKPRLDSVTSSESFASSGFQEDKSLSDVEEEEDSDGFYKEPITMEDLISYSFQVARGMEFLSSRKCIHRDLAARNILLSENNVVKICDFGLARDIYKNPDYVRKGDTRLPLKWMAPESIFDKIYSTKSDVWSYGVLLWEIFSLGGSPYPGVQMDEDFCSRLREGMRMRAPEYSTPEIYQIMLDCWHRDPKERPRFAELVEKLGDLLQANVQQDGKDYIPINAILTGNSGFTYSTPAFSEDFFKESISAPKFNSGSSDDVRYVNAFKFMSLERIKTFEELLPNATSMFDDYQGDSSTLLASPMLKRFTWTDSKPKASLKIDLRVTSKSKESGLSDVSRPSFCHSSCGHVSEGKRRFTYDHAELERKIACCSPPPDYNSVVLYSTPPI

Row | SMILES | solubility at 8 h [1] | IC50 (EGFR) | IC50 (VEGFR2) | IC50 (TIE2) | fraction unbound at 2 h, 2 μM (melanin) | IC50 (VEGFR1) | IC50 (VEGFR3)
1 | COc1cc(COc2nsc(NC(=O)NCCCCN3CCCC3)c2C(N)=O)cc(OC)c1 [Compound T006, 3-((3,5-dimethoxybenzyl)oxy)-5-(3-(4-(pyrrolidin-1-yl)butyl)ureido)isothiazole-4-carboxamide] | 1170 µg/mL (≈ 2450 µM) | 35000 nM | 47.4 nM |  |  |  | 
2 | NC(=O)c1c(OCc2ccc3c(c2)OCO3)nsc1NC(=O)NCCCCN1CCCC1 [Compound T007, 3-(benzo[d][1,3]dioxol-5-ylmethoxy)-5-(3-(4-(pyrrolidin-1-yl)butyl)ureido)isothiazole-4-carboxamide] | 608 µg/mL (≈ 1320 µM) |  | 43 nM | 475 nM |  |  | 
3 | Cn1nc(COc2nsc(NC(=O)NCCCCN3CCCC3)c2C(N)=O)cc1Br [Compound T022, 3-((5-bromo-1-methyl-1H-pyrazol-3-yl)methoxy)-5-(3-(4-(pyrrolidin-1-yl)butyl)ureido)isothiazole-4-carboxamide] | 1290 µg/mL (≈ 2570 µM) |  |  |  |  |  | 
4 | NC(=O)c1c(OCc2ccc(OC(F)F)c(F)c2)nsc1NC(=O)NCCCCN1CCCC1 [Compound T027, 3-((4-(difluoromethoxy)-3-fluorobenzyl)oxy)-5-(3-(4-(pyrrolidin-1-yl)butyl)ureido)isothiazole-4-carboxamide] | 478 µg/mL (≈ 953 µM) |  |  |  | 0.0421 |  | 
5 | COc1cccc(COc2nsc(NC(=O)NCCCCN3CCCC3)c2C(N)=O)c1F [Compound T030, 3-((2-fluoro-3-methoxybenzyl)oxy)-5-(3-(4-(pyrrolidin-1-yl)butyl)ureido)isothiazole-4-carboxamide] | 1520 µg/mL (≈ 3260 µM) | 21800 nM | 34.8 nM |  | 0.0232 |  | 
6 | CNC(=O)c1cccc(COc2nsc(NC(=O)NCCCCN3CCCC3)c2C(N)=O)c1 [Compound T049, 3-((3-(methylcarbamoyl)benzyl)oxy)-5-(3-(4-(pyrrolidin-1-yl)butyl)ureido)isothiazole-4-carboxamide] | 2310 µg/mL (≈ 4880 µM) |  | 19.8 nM | 7560 nM |  | 21.6 nM | 
7 | CNC(=O)c1cccc(COc2nsc(NC(=O)NCCC3CCN(C)CC3)c2C(N)=O)c1 [Compound T055, 3-((3-(methylcarbamoyl)benzyl)oxy)-5-(3-(2-(1-methylpiperidin-4-yl)ethyl)ureido)isothiazole-4-carboxamide] | 144 µg/mL (≈ 303 µM) | 49700 nM | 15.7 nM | 3360 nM |  | 7.7 nM | 39.3 nM
8 | CN1CCN(CCNC(=O)Nc2snc(OCc3cccc(C(=O)NC4CC4)c3)c2C(N)=O)CC1 [Compound T065, 3-((3-(cyclopropylcarbamoyl)benzyl)oxy)-5-(3-(2-(4-methylpiperazin-1-yl)ethyl)ureido)isothiazole-4-carboxamide] | 782 µg/mL (≈ 1560 µM) | ≥ 60000 nM | 9.95 nM | 5430 nM |  | 6.55 nM | 24.1 nM
9 | CNC(=O)c1cc(COc2nsc(NC(=O)NCCCCN3CCCC3)c2C(N)=O)ccc1F [Compound T070, 3-((4-fluoro-3-(methylcarbamoyl)benzyl)oxy)-5-(3-(4-(pyrrolidin-1-yl)butyl)ureido)isothiazole-4-carboxamide] | 927 µg/mL (≈ 1880 µM) | > 60000 nM | 12 nM | 7800 nM |  | 9.14 nM | 50.1 nM
10 | NC(=O)c1c(OCc2ccc3c(c2)COC3)nsc1NC(=O)NCCCCN1CCCC1 [Compound T072, 3-((1,3-dihydroisobenzofuran-5-yl)methoxy)-5-(3-(4-(pyrrolidin-1-yl)butyl)ureido)isothiazole-4-carboxamide] | 2060 µg/mL (≈ 4480 µM) | 43500 nM |  |  | 0.0196 |  | 
11 | NC(=O)c1c(OCc2ccc3c(c2F)OCC3)nsc1NC(=O)NCCCCN1CCCC1 [Compound T074, 3-((7-fluoro-2,3-dihydrobenzofuran-6-yl)methoxy)-5-(3-(4-(pyrrolidin-1-yl)butyl)ureido)isothiazole-4-carboxamide] | 133 µg/mL (≈ 278 µM) |  | 26.5 nM |  | 0.0462 |  | 

Next, values leading:

Row | solubility at 8 h [1] | IC50 (EGFR) | IC50 (VEGFR2) | IC50 (TIE2) | fraction unbound at 2 h, 2 μM (melanin) | IC50 (VEGFR1) | IC50 (VEGFR3) | SMILES
12 | 2000 µg/mL (≈ 4000 µM) | 50600 nM | 4.69 nM |  | 0.0183 | 3.33 nM | 13.2 nM | NC(=O)c1c(OCc2cccc(C(=O)NC3CC3)c2)nsc1NC(=O)NCCCCN1CCCC1 [Compound T056, 3-((3-(cyclopropylcarbamoyl)benzyl)oxy)-5-(3-(4-(pyrrolidin-1-yl)butyl)ureido)isothiazole-4-carboxamide]
13 | 977 µg/mL (≈ 2010 µM) | > 60000 nM | 8.86 nM |  |  | 9.43 nM | 30.1 nM | NC(=O)c1c(OCc2cccc(C(=O)NC3CC3)c2)nsc1NC(=O)NCCCN1CCCC1 [Compound T067, 3-((3-(cyclopropylcarbamoyl)benzyl)oxy)-5-(3-(3-(pyrrolidin-1-yl)propyl)ureido)isothiazole-4-carboxamide]
14 | 633 µg/mL (≈ 1230 µM) | > 60000 nM | 2.77 nM | 3510 nM |  | 5.48 nM | 14.6 nM | CN1CCN(CCCNC(=O)Nc2snc(OCc3cccc(C(=O)NC4CC4)c3)c2C(N)=O)CC1 [Compound T069, 3-((3-(cyclopropylcarbamoyl)benzyl)oxy)-5-(3-(3-(4-methylpiperazin-1-yl)propyl)ureido)isothiazole-4-carboxamide]
15 | 1640 µg/mL (≈ 3040 µM) |  | 3 nM | 241 nM | 0.0362 |  |  | CCNC(=O)c1ccc(F)c(COc2nsc(NC(=O)NCCC3CCN(CCF)CC3)c2C(N)=O)c1 [Compound T127, 3-[[5-(ethylcarbamoyl)-2-fluoro-phenyl]methoxy]-5-[2-[1-(2-fluoroethyl)-4-piperidyl]ethylcarbamoylamino]isothiazole-4-carboxamide]
16 | 757 µg/mL (≈ 1410 µM) | 21500 nM | 0.5 nM |  |  |  |  | NC(=O)c1c(OCc2cc(C(=O)NC3CC3)cc(F)c2F)nsc1NC(=O)NCCCCN1CCCC1 [Compound T133, 3-[[5-(cyclopropylcarbamoyl)-2,3-difluoro-phenyl]methoxy]-5-(4-pyrrolidin-1-ylbutylcarbamoylamino)isothiazole-4-carboxamide]
17 | 815 µg/mL (≈ 1560 µM) | 24000 nM | 3.53 nM |  |  | 2.25 nM | 12.8 nM | NC(=O)c1c(OCc2ccc(F)c(C(=O)NC3CC3)c2)nsc1NC(=O)NCCCN1CC[C@H](F)C1 [Compound T152, 3-[[3-(cyclopropylcarbamoyl)-4-fluoro-phenyl]methoxy]-5-[3-[(3S)-3-fluoropyrrolidin-1-yl]propylcarbamoylamino]isothiazole-4-carboxamide]

Source: patent US20260217698A1 (BEYANG THERAPEUTICS CO., LTD., priority 2022, published 2026)
